Results from patent US20080009416A1, “THIAZOLIUM COMPOUNDS AND USES THEREOF” (Mycosol, Inc., priority 2004, published 2008).

What was measured:
Pyricularia oryzae = format: cell-based; conditions: Pyricularia oryzae (Rice); 18° C., 7 days; growth reduced by at least 90% vs control, OD 405 nm
male Lewis rats = conditions: intrapleural with carrageenan, 4 hours
Description: Acute Anti-Inflammatory Activity in the 4HR Carrageenan Pleurisy Assay in Rats
The Acute Local Carrageenan Pleuritis Assay in Rats is an in vivo model to determine local acute anti-inflammatory activity of compounds based on inhibition of edema formation and neutrophil mobilization into the pleural cavity. In this assay, male Lewis rats of approximately 200 gms were utilized. A carrageenan solution (400 μg/ml) was prepared in water. The experimental compounds were mixed into the carrageenan solution. The carrageenan +/− compounds was injected intrapleurally 0.25 cc/rat. The rats were sacrificed four hours later. The pleural cavity was opened and measured and the exudate extracted. The pleural cavity was washed with 5 cc EDTA solution to capture pleural cells. The total WBCs in the wash were counted and recording. Next the compound inhibition of exudate volume and inflammatory cell influx wash determined. Every experiment included a positive (prednisolone) and negative control group.

Phytophthora infestans = format: cell-based; conditions: Phytophthora infestans (Tomato); 18° C., 7 days; growth reduced by at least 90% vs control, OD 405 nm
Cochliobolus mijabeanus = assay: Anti-Fungal Activity in Plant Relevant Molds In Vitro Microtitre Test; format: cell-based; conditions: Cochliobolus mijabeanus (Corn); 18° C., 7 days; growth reduced by at least 90% vs control, OD 405 nm
Description: (§1) Compounds III, IV and V were prepared and were subjected to Anti-Fungal Activity in Plant Relevant Molds In Vitro Microtitre Tests.
(§2) A stock solution of each compound was prepared in DMSO at a concentration of 10,000 ppm a.i. Further dilutions were prepared with water. The test was conducted at the following concentrations: 125, 31, 8, […], 0.5 and 0.125 ppm a.i. Spore suspensions of the fungi were prepared. The test was conducted in microtiter plates and for each fungus and each concentration, 3 wells were prepared. Incubation of the inoculated plates was carried out at 18° C. for 7 days. After this time, the optical density of the mycelium developed in each well was measured at 405 nm.
(§3) The data produced allowed an assessment of the IC 90 value (the concentration at which the fungal growth was reduced by at least 90% compared to the control).

Alternaria solani = assay: as above; format: cell-based; conditions: Alternaria solani (Potato); 18° C., 7 days; growth reduced by at least 90% vs control, OD 405 nm
Description: as §1, §2, §3

Fusarium culmorum = assay: as above; format: cell-based; conditions: Fusarium culmorum (Wheat Head); 18° C., 7 days; growth reduced by at least 90% vs control, OD 405 nm
Description: as §1, §2, §3

Pyrenophora teres = assay: as above; format: cell-based; conditions: Pyrenophora teres (Barley); 18° C., 7 days; growth reduced by at least 90% vs control, OD 405 nm
Description: as §1, §2, §3

[1] = tested on: Colletotrichum lagenarium; assay: as above; format: cell-based; conditions: Colletotrichum lagenarium (Mellons); 18° C., 7 days; growth reduced by at least 90% vs control, OD 405 nm
Description: as §1, §2, §3

Botrytis cinerea = assay: as above; format: cell-based; conditions: Botrytis cinerea (Vegetable); 18° C., 7 days; growth reduced by at least 90% vs control, OD 405 nm
Description: as §1, §2, §3

Rhizoctonia solani = assay: as above; format: cell-based; conditions: Rhizoctonia solani (Rice Sheath); 18° C., 7 days; growth reduced by at least 90% vs control, OD 405 nm
Description: as §1, §2, §3

Septonia tritici = assay: as above; format: cell-based; conditions: Septonia tritici (Wheat Leaf); 18° C., 7 days; growth reduced by at least 90% vs control, OD 405 nm
Description: as §1, §2, §3

CC(C)c1ccc(C(C)C)c(-c2csc(/C=C/c3ccc(N(C)C)cc3)[n+]2C)c1.[I-] [Formula IV, E-2-(N,N′-dimethylaminostyryl)-3-methyl-4-(2,5-diisopropylphenyl)thiazolium iodide]
IC90 (Pyricularia oryzae): 8 ppm
Acute Anti-inflammatory Activity in Rats ED50 (male Lewis rats): 0.0002 mg/rat
IC90 (Phytophthora infestans): 8 ppm
IC90 (Cochliobolus mijabeanus): 8 ppm
IC90 (Alternaria solani): 8 ppm
IC90 (Fusarium culmorum): 125 ppm
IC90 (Pyrenophora teres): 8 ppm
IC90 [1]: 8 ppm
IC90 (Botrytis cinerea): 2 ppm
IC90 (Rhizoctonia solani): 8 ppm
IC90 (Septonia tritici): 2 ppm

CC[n+]1c(-c2ccc(-c3ccccc3)cc2)csc1C=Cc1ccc(N2CCCC2)cc1.[I-] [4-(4-biphenyl)-3-ethyl-2-[(4-pyrrolidino)styryl]thiazolium iodide]
Acute Anti-inflammatory Activity in Rats ED50 (male Lewis rats): 0.001 mg/rat

Cc1cc(-c2csc(/C=C/c3ccc(N(C)C)cc3)[n+]2C)c(C)c(C)c1C.[I-] [Formula V, E-2-(N,N′-dimethylaminostyryl)-3-methyl-4-(2,3,4,5-tetramethylphenyl)thiazolium iodide]
IC90 (Pyricularia oryzae): 8 ppm
IC90 (Phytophthora infestans): 2 ppm
IC90 (Cochliobolus mijabeanus): 8 ppm
IC90 (Alternaria solani): 8 ppm
IC90 (Fusarium culmorum): 31 ppm
IC90 (Pyrenophora teres): 8 ppm
IC90 [1]: 8 ppm
IC90 (Botrytis cinerea): 2 ppm
IC90 (Rhizoctonia solani): 8 ppm
IC90 (Septonia tritici): 2 ppm

Cc1scc(-c2ccc(C3CCCCC3)cc2)[n+]1C.[I-] [2,3-dimethyl-4(p-cyclohexylphenyl) thiazolium iodide]
Acute Anti-inflammatory Activity in Rats ED50 (male Lewis rats): 0.02 mg/rat

CCN(CC)c1ccc(C=Cc2scc(-c3ccc(CC(C)C)cc3)[n+]2C)cc1.[I-] [2-[2-(4-diethylamino-phenyl)vinyl]-4-(4-isobutyl-phenyl)-3-methyl-thiazolium iodide]
Acute Anti-inflammatory Activity in Rats ED50 (male Lewis rats): 0.0003 mg/rat

CCOc1ccc(-c2csc(C=Cc3ccc(N(CC)CC)cc3)[n+]2C)cc1.[I-] [2-(4′-diethylaminostyryl)-4-(4″-ethoxyphenyl)-3-methyl-thiazolium iodide]
Acute Anti-inflammatory Activity in Rats ED50 (male Lewis rats): 0.001 mg/rat

CCN(CC)c1ccc(/C=C/c2scc(-c3ccc(OC)cc3)[n+]2C)cc1.[I-] [Formula III]
IC90 (Pyricularia oryzae): 8 ppm
IC90 (Phytophthora infestans): 2 ppm
IC90 (Cochliobolus mijabeanus): 2 ppm
IC90 (Alternaria solani): 31 ppm
IC90 (Fusarium culmorum): 31 ppm
IC90 (Pyrenophora teres): 8 ppm
IC90 [1]: 8 ppm
IC90 (Botrytis cinerea): 2 ppm
IC90 (Rhizoctonia solani): 8 ppm
IC90 (Septonia tritici): 2 ppm

CC(C)Cc1ccc(-c2csc(C=Cc3ccc(N4CCCC4)cc3)[n+]2C)cc1.[I-] [4-(4-isobutylphenyl)-3-methyl-2-[2-(4-pyrrolidin-1-yl-phenyl)vinyl]-thiazolium iodide]
Acute Anti-inflammatory Activity in Rats ED50 (male Lewis rats): 0.0004 mg/rat
